Reference: article PMC6017749, “Exploring N-acyl-4-azatetracyclo[5.3.2.0^2,6.0^8,10]dodec-11-enes as 11β-HSD1 Inhibitors” (Molecules : A Journal of Synthetic Chemistry and Natural …, 2018)
Where two headings read alike, the source gives them in different places.

Legend:
human 11β-HSD2 [1] = target: T1, human 11β-HSD2 (Homo sapiens, UniProt P80365); settings: cited from earlier work; for IC50: read-out: HEK hHSD2 IC50
T1 construct: stably transfected with the full-length gene coding for human 11β-HSD2; expressed in transfected cells; host or cells: HEK293
T1 sequence (P80365 1-405): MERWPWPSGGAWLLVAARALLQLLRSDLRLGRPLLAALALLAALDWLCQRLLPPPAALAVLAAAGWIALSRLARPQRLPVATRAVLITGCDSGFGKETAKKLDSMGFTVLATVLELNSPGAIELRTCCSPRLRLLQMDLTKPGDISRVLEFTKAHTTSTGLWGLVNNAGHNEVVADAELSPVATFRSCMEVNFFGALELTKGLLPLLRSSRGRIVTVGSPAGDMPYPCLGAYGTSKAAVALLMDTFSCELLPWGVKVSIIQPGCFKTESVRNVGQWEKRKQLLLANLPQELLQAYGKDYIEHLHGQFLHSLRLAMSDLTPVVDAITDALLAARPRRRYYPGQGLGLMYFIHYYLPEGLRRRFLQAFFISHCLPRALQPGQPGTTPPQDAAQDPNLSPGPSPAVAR

[2] = set-up: method as in PMID 21471376, PMID 26306982; settings: remaining compound after 30-min incubation in human liver microsomes; cited from earlier work
[3] = tested on: Senescence-Accelerated Mouse Prone 8 (SAMP8); set-up: method as in PMID 28818766; settings: 12-month-old SAMP8 mice, four weeks; cited from earlier work
[4] = set-up: method as in PMID 21471376, PMID 26306982; settings: remaining compound in mouse liver microsomes; cited from earlier work
human 11β-HSD1 [5] = target: T2, human 11β-HSD1 (Homo sapiens, UniProt P28845); set-up: method as in PMID 21471376, PMID 26306982; settings: previous inhibitors of the group; read-out: hHSD1 IC50; cited from earlier work
T2 construct: The assay uses human liver microsomes (HLM), where the enzyme is expressed; tissue Celsis In-vitro Technologies; host or cells: mixed sex human liver microsomes
T2 sequence (P28845 whole entry): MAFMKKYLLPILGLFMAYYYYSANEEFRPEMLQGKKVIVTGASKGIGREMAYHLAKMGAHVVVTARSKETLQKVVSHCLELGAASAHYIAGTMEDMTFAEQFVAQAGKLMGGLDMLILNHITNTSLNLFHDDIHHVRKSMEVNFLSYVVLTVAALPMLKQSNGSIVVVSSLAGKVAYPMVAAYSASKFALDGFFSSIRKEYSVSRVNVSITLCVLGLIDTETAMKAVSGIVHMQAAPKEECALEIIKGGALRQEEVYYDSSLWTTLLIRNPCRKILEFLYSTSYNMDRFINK

mHSD1 = tested on: mHSD1; set-up: method as in PMID 21471376, PMID 26306982; settings: murine enzyme; cited from earlier work
human 11β-HSD1 [6] = target: T2, human 11β-HSD1; test: 11β-HSD1 enzyme inhibition assay in human liver microsomes (3H-cortisone to 3H-cortisol, SPA); format: biochemical; settings: human liver microsomes; for inhibition at 10 µM: relative to no inhibitor control, read-out: hHSD1 % inh at 10 µM; for IC50: read-out: hHSD1 IC50
Experimental: A preliminary screen was performed using a human microsome assay with compounds at 10 µM in order to assess their potential inhibition of the target enzyme (Table 2). Percentage of inhibition was determined by measuring the conversion of ^3H-cortisone to ^3H-cortisol by capturing liberated ^3H-cortisol on anti-cortisol (HyTest Ltd., Turku, Finland)-coated scintillation proximity assay beads. The assay uses human liver microsomes (HLM), where the enzyme is expressed, and NADPH as the cofactor needed by the enzyme. Eight of the thirteen new compounds presented 100% inhibition of the human 11β-HSD1 in this single concentration assay, so dose-response curves were performed to get their IC50 values.
11β-HSD1 activity was determined in mixed sex, human liver microsomes (HLM, Celsis In-vitro Technologies) by measuring the conversion of ^3H-cortisone to ^3H-cortisol. Percentage inhibition was determined relative to a no inhibitor control. An amount of 5 μg of HLM were pre-incubated at 37 °C for 15 min with inhibitor and 1 mM NADPH in a final volume of 90 μL Krebs buffer. 10 μL of 200 nM ^3H-cortisone was then added followed by incubation at 37 °C for a further 30 min. The assay was terminated by rapid freezing on dry ice and ^3H-cortisone to ^3H-cortisol conversion determined in 50 μL of the defrosted reaction by capturing liberated ^3H-cortisol on anti-cortisol (HyTest Ltd)-coated scintillation proximity assay beads (protein A-coated YSi, GE Healthcare). Reported values are the average of 1–3 measurements. A nanomolar 11β-HSD1 inhibitor, UE2316, was added as a positive control within in each set of assays.

[7] = Microsomal stability assay in human liver microsomes; format: in vitro ADME; settings: remaining compound after 30-min incubation in HLM
Experimental: (§1) Selectivity over 11β-HSD2 was also assessed in a cell-based assay using the same methodology as before (HEK293 stably transfected with the 11β-HSD2 gene). […] Finally, metabolic stability was determined using HLM, which are widely used to predict the degree of primary metabolic clearance in the liver. Each compound was incubated over 30 min with HLM and the percentage of remaining compound after this incubation period was determined by calculating compound concentration after and before by LC/MS.
The microsomal stability of each compound was determined using human liver microsomes (HLM, Celsis In-vitro Technologies, Baltimore, MD, USA). Microsomes were thawed and diluted to a concentration of 2 mg/mL in 50 mM sodium phosphate buffer pH 7.4. Each compound was diluted in 4 mM NADPH (made in the phosphate buffer above) to a concentration of 10 µM. Two identical incubation plates were prepared to act as a 0 min and a 30 min time point assay. 30 µL of each compound dilution was added in duplicate to the wells of a U-bottom 96-well plate and warmed at 37 °C for approximately 5 min. Verapamil, lidocaine, and propranolol at 10 µM concentration were utilized as reference compounds in this experiment. Microsomes were also pre-warmed at 37 °C before the addition of 30 µL to each well of the plate resulting in a final concentration of 1 mg/mL. The reaction was terminated at the appropriate time point (0 or 30 min) by addition of 60 µL of ice-cold 0.3 M trichloroacetic acid (TCA) per well. The plates were centrifuged for 10 min at 112× g and the supernatant fraction transferred to a fresh U-bottom 96-well plate. Plates were sealed and frozen at −20 °C prior to MS analysis. LC-MS/MS was used to quantify the peak area response of each compound before and after incubation with HLM using MS tune settings established and validated for each compound. These peak intensity measurements were used to calculate the percentage remaining after incubation with HLM for each hit compound. Reported values are the average of 1–3 measurements.

human 11β-HSD1 [8] = target: T2, human 11β-HSD1; test: Cellular 11β-HSD1 enzyme inhibition assay (HEK293 stably transfected, cortisol by LC/MS); format: cell-based; settings: for inhibition at 10 µM: HEK293 transfected with human 11β-HSD1, read-out: HEK hHSD1 % inh at 10 µM; for HEK hHSD1 % inh at 10 µM: HEK293 transfected with human 11β-HSD1
Experimental: Those compounds with submicromolar IC50 values (4, 6, 8, 9 and 16) were further evaluated in terms of cellular potency, selectivity over 11β-HSD2, and metabolic stability as follows (Table 2, 5th, 6th, and 7th column, respectively). Cellular potency was assessed using Human Embryonic Kidney 293 (HEK293) cells stably transfected with the 11β-HSD1 gene. Cells were incubated with substrate (cortisone) and percentage of inhibition was determined by measuring the conversion of cortisone to cortisol by LC/MS. The results were in line with the previous results obtained in the microsomal assay.
The cellular 11β-HSD1 enzyme inhibition assay was performed using HEK293 cells stably transfected with the human 11β-HSD1 gene. Cells were incubated with substrate (cortisone) and product (cortisol) was determined by LC/MS. Cells were plated at 2 × 10^4 cells/well in a 96-well poly-D-lysine coated tissue culture microplate (Greiner Bio-one, Monroe, NC, USA) and incubated overnight at 37 °C in 5% CO2 […]. Compounds to be tested were solubilized in 100% dimethylsulfoxide (DMSO) at 10 mM and serially diluted in water and 10% DMSO to final concentration of 10 µM in 10% DMSO. Then 10 µL of each test dilution and 10 µL of 10% DMSO (for low and high control) were dispensed into the well of a new 96-well microplate (Greiner Bio-one). Medium was removed from the cell assay plate and 100 µL of Dulbecco’s Modified Eagle’s Medium DMEM solution (containing 1% penicillin, 1% streptomycin and 300 nM cortisone) added to each well. Cells were incubated for 2 h at 37 °C in 5% CO2 […]. Following incubation, medium was removed from each well into an Eppendorf containing 500 µL of ethyl acetate, mixed by vortex and incubated at r.t. for 5 min. A calibration curve of known concentrations of cortisol in assay medium was also set up and added to 500 µL of ethyl acetate, vortexed and incubated as above. The supernatant of each Eppendorf was removed to a 96-deep-well plate and dried down under […] at 65 °C. Each well was solubilized in 100 µL 70:30 H2O:acetonitrile (ACN) and removed to a 96-well V-bottomed plate for LC/MS analysis. Separation was carried out on a Sunfire 150 × 2.1 mm, […] column using a H2O:ACN gradient profile. Typical retention times were 2.71 min for cortisol and 2.80 min for cortisone. The peak area was calculated and the concentration of each compound determined from the calibration curve. Reported values are the average of 1–3 measurements.

human 11β-HSD2 [9] = target: T1, human 11β-HSD2; test: Cellular 11β-HSD2 enzyme inhibition assay (HEK293 stably transfected); format: cell-based; settings: for inhibition at 10 µM: HEK293, 10 µM, read-out: HEK hHSD2 % inh at 10 µM
Experimental: as §1
For measurement of inhibition of 11β-HSD2, HEK293 cells stably transfected with the full-length gene coding for human 11β-HSD2 were used. The protocol was the same as for the cellular 11β-HSD1 enzyme inhibition assay, only changing the substrate, this time cortisol, and the concentrations of the tested compounds, 10, 1, and 0.1 µM. Reported values are the average of 1–3 measurements.

[10] = 10 µM, HEK293 transfected with human 11β-HSD2
[11] = HEK293 transfected with human 11β-HSD2

SMILES	inhibition at 10 µM (human 11β-HSD1 [6]) [%]	IC50 (human 11β-HSD1 [6]) [nM]	melting point [°C]	HLM % Parent [7] [%]	inhibition at 10 µM (human 11β-HSD1 [8]) [%]	inhibition at 10 µM (human 11β-HSD2 [9]; [11]) [%]	HEK hHSD1 % inh at 10 µM (human 11β-HSD1 [8])	HLM % Parent [2] [%]	also measured
O=C(NC1C2CC3CC(C2)CC1C3)C1CCCCC1 (centres unmarked) [Compound 1]	–	–	–	–	–	–	–	74	HEK hHSD2 % inh 10 µM (human 11β-HSD2 [1]; [10]): 88%
O=C(C1CCCCC1)N1CC2C3CCC(C4CC34)C2C1 (centres unmarked) [Compound 3]	–	–	–	–	–	–	–	94	effect on memory deficits [3]: prevented memory deficits; neuroprotective action [3]: displayed a neuroprotective action through reduction of neuroinflammation and oxidative stress; MLM % Parent [4]: 93%; IC50 (human 11β-HSD1 [5]): 29 nM; IC50 (human 11β-HSD2 [1]; [11]): 100 to 1000 nM; IC50 (mHSD1): 81 nM
O=C(c1ccccc1)N1CC2C3C=CC(C4CC34)C2C1 (centres unmarked) [Compound 4, (4-Azatetracyclo[5.3.2.0^2,6.0^8,10]dodec-11-en-4-yl)(phenyl)methanone]	100	546	65 to 66	85	77	84	–	–	–
O=C(C1CCCCC1)N1CC2C3C=CC(C4CC34)C2C1 (centres unmarked) [Compound 2]	100	19	–	27	100	69	–	27	selectivity index against 11β-HSD2 isoform (human 11β-HSD2 [1]; 11β-HSD2 versus 11β-HSD1): at least 50 fold; IC50 (human 11β-HSD2 [1]; [11]): 1000 to 10000 nM

Now from value to compound, other results behind:

inhibition at 10 µM (human 11β-HSD1 [6]) [%]	IC50 (human 11β-HSD1 [6]) [nM]	melting point [°C]	HLM % Parent [7] [%]	inhibition at 10 µM (human 11β-HSD1 [8]) [%]	inhibition at 10 µM (human 11β-HSD2 [9]; [11]) [%]	HEK hHSD1 % inh at 10 µM (human 11β-HSD1 [8])	SMILES	HLM % Parent [2] [%]	also measured
100	666	91 to 92	60	41	71	–	CC(C)(C)C(=O)N1CC2C3C=CC(C4CC34)C2C1 (centres unmarked) [Compound 6, (4-Azatetracyclo[5.3.2. 0^2,6.0^8,10]dodec-11-en-4-yl)(tert-butyl)methanone]	–	–
100	56	78 to 79	44	100	87	complete inhibition	O=C(C1CC=CCC1)N1CC2C3C=CC(C4CC34)C2C1 (centres unmarked) [Compound 9, (4-Azatetracyclo[5.3.2. 0^2,6.0^8,10]dodec-11-en-4-yl)(cyclohex-3-en-1-yl)methanone]	–	–
100	45	186 to 187	13	100	86	complete inhibition	Nc1c(Cl)cc(C(=O)N2CC3C4C=CC(C5CC45)C3C2)cc1Cl (centres unmarked) [Compound 8, (4-Amino-3,5-dichlorophenyl)(4-azatetracyclo[5.3.2. 0^2,6.0^8,10]dodec-11-en-4-yl)methanone]	–	–
100	377	160 to 161	13	100	54	complete inhibition	N#Cc1ccc(N2CCN(c3ccc(C(=O)N4CC5C6C=CC(C7CC67)C5C4)cn3)CC2)cc1 (centres unmarked) [Compound 16, 4-[[4-[5-(4-Azatetracyclo[5.3.2. 0^2,6.0^8,10]dodec-11-en-4-yl)carbonyl]pyridin-2-yl]piperazin-1-yl]benzonitrile]	–	HEK hHSD2 % inh at 10 µM (human 11β-HSD2 [9]; [10]): 53%; selectivity index over 11β-HSD2 (human 11β-HSD2 [9]; 11β-HSD2 IC50 versus 11β-HSD1 IC50): 30 fold; IC50 (human 11β-HSD2 [9]; inferred from 54% inhibition at 10 µM in HEK293 cells, read-out: IC50 against 11β-HSD2): ~10000 nM
